21 compounds from ChEMBL document CHEMBL1629455, “Discovery of a novel class of biphenyl pyrazole sodium channel blockers for treatment of neuropathic pain” (Bioorg Med Chem Lett, 2010) can be followed below.

Series [1] has as its system Rattus norvegicus. Kind of series: Antiallodynic activity in rat spinal nerve ligation model of neuropathic pain assessed as reversal of allodynia at 10 mg/kg, po after 4 hrs. Format: functional.
The subject of series [2] is Rattus norvegicus. The experiment in a line: Antiallodynic activity in rat spinal nerve ligation model of neuropathic pain assessed as reversal of allodynia at 10 mg/kg, po after 2 hrs. Format: functional.
The next series deals with hERG (KCNH2) (Homo sapiens, UniProt Q12809). Kind of series: Inhibition of MK-0499 binding to human ERG at 10 uM. To be noted: probe MK-0499.
Sequence of hERG (KCNH2) (Q12809 whole entry): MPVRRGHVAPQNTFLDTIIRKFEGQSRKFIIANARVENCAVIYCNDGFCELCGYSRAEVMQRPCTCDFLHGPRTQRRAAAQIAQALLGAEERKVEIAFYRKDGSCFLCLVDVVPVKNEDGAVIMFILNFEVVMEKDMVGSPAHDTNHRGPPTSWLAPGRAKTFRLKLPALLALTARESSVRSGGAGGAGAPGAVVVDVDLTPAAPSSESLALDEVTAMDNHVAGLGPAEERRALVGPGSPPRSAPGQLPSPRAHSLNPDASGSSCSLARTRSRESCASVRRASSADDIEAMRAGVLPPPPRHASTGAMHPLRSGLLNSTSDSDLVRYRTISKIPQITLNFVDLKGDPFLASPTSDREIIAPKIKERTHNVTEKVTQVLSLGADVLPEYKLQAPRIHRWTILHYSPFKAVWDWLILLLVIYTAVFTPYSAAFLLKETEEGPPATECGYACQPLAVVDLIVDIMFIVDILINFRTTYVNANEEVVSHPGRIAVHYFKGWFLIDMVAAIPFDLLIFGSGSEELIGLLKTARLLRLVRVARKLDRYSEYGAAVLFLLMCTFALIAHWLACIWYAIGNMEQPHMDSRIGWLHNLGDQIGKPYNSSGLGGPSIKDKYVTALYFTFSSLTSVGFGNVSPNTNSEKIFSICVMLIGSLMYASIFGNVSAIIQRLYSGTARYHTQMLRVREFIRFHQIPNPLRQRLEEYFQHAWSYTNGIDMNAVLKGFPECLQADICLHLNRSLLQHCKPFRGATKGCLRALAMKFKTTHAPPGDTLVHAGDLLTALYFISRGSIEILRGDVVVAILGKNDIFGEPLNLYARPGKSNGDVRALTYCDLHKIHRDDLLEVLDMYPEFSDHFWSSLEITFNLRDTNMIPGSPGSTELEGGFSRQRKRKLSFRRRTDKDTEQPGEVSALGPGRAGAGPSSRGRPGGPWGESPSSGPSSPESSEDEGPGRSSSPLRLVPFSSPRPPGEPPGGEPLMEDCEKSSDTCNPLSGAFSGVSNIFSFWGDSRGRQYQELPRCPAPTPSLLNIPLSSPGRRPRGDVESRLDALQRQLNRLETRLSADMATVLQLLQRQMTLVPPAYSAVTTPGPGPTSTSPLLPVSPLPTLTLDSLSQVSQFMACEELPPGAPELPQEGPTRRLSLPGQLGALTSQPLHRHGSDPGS
For series [3], the target named is T1, Sodium channel protein type 9 subunit alpha (Homo sapiens, UniProt Q15858). Kind of series: Inhibition of human Nav1.7 by VIPR assay.
Target sequence in this assay (Q15858 whole entry): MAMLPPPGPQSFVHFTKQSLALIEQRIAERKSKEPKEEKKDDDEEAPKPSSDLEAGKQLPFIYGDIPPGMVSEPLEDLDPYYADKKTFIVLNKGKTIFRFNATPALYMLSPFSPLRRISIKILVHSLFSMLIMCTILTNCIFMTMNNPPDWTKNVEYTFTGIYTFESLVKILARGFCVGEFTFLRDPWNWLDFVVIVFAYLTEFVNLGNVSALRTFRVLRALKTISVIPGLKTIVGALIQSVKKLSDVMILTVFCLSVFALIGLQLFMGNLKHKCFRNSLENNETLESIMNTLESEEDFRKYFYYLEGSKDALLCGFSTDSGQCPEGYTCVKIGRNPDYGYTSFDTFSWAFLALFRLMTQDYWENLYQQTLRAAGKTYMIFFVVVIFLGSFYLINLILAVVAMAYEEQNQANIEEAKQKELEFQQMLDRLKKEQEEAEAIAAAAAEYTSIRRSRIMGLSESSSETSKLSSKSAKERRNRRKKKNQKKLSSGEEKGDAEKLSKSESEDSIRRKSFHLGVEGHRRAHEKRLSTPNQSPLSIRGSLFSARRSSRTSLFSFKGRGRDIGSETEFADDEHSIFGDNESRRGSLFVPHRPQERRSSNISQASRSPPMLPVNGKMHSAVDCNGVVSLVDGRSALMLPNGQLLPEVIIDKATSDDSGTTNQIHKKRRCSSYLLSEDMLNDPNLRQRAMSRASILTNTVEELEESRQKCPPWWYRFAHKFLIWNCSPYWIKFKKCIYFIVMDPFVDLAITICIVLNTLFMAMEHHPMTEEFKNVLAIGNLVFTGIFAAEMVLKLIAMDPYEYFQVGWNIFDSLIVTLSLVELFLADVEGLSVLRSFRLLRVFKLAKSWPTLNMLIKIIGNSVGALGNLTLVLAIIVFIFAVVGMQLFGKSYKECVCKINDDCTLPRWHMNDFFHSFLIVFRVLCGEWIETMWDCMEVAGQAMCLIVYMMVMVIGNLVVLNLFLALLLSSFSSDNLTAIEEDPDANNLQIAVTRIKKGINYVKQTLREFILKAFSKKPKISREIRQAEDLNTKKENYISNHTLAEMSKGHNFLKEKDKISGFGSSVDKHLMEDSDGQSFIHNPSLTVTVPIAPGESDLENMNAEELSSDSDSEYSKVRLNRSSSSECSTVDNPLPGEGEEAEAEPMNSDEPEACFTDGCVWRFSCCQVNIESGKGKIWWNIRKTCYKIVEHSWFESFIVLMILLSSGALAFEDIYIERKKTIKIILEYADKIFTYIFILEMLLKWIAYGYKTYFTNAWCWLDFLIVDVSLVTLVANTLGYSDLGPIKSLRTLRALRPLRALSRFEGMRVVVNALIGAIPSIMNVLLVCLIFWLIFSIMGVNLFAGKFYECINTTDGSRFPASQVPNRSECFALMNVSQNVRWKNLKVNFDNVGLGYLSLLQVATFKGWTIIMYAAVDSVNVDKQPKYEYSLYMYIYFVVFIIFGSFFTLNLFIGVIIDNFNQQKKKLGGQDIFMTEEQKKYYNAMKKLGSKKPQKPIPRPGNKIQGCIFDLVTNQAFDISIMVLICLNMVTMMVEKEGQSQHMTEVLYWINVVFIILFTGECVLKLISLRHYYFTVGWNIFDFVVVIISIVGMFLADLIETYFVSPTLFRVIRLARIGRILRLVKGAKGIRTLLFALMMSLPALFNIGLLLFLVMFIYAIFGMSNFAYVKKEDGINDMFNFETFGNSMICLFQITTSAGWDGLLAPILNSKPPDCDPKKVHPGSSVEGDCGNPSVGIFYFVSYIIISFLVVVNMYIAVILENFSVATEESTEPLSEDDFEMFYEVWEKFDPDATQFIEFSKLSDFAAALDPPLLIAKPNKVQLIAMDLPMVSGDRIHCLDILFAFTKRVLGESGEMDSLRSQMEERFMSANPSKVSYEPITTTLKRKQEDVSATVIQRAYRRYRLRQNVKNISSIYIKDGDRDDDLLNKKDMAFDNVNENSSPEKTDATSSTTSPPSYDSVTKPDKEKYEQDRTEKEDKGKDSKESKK
Series [4] addresses Sodium channel protein type 10 subunit alpha (Homo sapiens, UniProt Q9Y5Y9). Kind of series: Inhibition of human Nav1.8 by VIPR assay.
Series [5] deals with T1, Sodium channel protein type 9 subunit alpha. Kind of series: Inhibition of human Nav1.7 at 10 uM by VIPR assay.
Target sequence in this assay (Q15858 whole entry, looked up): as the sequence (Q15858 whole entry) above

Sequence of Sodium channel protein type 10 subunit alpha (Q9Y5Y9 whole entry): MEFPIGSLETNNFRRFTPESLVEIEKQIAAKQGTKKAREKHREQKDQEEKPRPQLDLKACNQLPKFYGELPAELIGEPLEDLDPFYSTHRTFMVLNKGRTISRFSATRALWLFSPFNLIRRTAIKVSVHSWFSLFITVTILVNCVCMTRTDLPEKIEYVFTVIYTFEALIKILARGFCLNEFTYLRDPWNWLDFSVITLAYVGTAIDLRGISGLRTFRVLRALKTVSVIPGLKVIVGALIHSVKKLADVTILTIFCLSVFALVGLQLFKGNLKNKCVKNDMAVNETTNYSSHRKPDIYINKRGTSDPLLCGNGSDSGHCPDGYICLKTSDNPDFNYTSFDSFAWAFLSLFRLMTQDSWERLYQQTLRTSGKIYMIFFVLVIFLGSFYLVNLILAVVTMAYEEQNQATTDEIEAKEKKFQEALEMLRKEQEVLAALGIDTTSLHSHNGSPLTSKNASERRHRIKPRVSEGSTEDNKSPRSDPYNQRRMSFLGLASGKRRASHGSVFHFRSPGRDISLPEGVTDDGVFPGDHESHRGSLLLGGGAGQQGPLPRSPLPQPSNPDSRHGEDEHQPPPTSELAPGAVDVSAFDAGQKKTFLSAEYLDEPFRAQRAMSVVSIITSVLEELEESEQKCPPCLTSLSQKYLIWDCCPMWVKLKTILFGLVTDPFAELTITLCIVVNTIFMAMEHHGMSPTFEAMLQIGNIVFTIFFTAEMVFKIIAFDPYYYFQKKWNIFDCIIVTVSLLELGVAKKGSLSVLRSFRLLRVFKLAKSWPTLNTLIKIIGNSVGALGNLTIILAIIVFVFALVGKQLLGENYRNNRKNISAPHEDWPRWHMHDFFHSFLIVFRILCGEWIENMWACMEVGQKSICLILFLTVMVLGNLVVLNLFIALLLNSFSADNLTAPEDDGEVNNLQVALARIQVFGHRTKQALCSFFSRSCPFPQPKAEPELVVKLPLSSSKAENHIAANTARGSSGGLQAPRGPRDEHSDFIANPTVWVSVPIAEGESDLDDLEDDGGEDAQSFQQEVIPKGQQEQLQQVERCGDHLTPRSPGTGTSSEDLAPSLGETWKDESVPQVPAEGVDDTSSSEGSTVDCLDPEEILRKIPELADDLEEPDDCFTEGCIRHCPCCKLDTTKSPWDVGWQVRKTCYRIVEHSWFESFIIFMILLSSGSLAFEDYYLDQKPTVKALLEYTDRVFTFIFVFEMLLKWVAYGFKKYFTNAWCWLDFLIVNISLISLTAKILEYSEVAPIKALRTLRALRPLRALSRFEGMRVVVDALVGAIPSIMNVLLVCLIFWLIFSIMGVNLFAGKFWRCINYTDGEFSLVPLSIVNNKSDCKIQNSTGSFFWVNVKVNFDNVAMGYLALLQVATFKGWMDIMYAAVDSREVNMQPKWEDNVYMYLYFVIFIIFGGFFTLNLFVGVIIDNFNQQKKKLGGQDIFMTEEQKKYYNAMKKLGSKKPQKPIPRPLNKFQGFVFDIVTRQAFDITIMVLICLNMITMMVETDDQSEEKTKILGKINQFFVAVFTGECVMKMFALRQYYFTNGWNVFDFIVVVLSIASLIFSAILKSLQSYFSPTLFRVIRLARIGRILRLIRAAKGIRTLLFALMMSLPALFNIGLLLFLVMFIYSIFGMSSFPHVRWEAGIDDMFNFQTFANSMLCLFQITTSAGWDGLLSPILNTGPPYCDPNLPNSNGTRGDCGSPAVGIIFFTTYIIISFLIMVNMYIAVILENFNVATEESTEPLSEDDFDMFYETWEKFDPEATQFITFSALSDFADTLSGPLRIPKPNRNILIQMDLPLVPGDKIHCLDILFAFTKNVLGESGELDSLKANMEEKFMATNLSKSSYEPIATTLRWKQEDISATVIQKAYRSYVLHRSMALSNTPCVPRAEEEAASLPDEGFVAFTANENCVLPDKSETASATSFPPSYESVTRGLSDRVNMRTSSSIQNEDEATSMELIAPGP

For the compound `Cc1c(C(N)=O)c(C(N)=O)nn1-c1cccc(-c2ccccc2OC(F)(F)F)c1`, the Activity in the series on Rattus norvegicus [1] turned out to be 8%; in the series with Rattus norvegicus [2], 16%. Moreover, the inhibition at 10 µM at hERG (KCNH2) turned out to be 15%. The IC50 in series [3] turned out to be 185 nM.
Turning to `NC(=O)c1cc(C(N)=O)n(-c2cccc(-c3ccccc3C(F)(F)F)c2)n1`, the half-maximal inhibitory concentration (IC50) in series [4] worked out at 915 nM; in series [3], 155 nM. Also, the Activity is recorded as 2% in the series on Rattus norvegicus [1] and 9% in the series on Rattus norvegicus [2].
For `NC(=O)c1cc(C(N)=O)n(-c2cccc(-c3c(F)cccc3OC(F)(F)F)c2)n1`, in that order: 802 nM, 106 nM, 9% and 15%.
As to `CCNC(=O)c1cc(C(=O)NCC)n(-c2cccc(-c3ccccc3OC(F)(F)F)c2)n1`, the inhibition in series [5] was 1%. At hERG (KCNH2), this compound returned an inhibition at 10 µM of 27%.
Take `NC(=O)c1cc(C(N)=O)n(-c2cccc(-c3cccc(Cl)c3Cl)c2)n1`: the Activity with Rattus norvegicus [1] worked out at 7%; in the series with Rattus norvegicus [2] it was 15%. The IC50 in series [3] turned out to be 195 nM.
As to `NC(=O)c1cn(-c2cccc(-c3ccccc3OC(F)(F)F)c2)nc1C(N)=O`, the Activity came to 8% with Rattus norvegicus [1] and 18% with Rattus norvegicus [2]. On hERG (KCNH2), this compound registered an inhibition at 10 µM of 1%. In series [3], the concentration for half-maximal inhibition (IC50) came to 49 nM.
At hERG (KCNH2), `NC(=O)c1nn(-c2cccc(-c3ccccc3OC(F)(F)F)c2)c(C(N)=O)c1C(N)=O` had an inhibition at 10 µM of 49%. The compound also gave a half-maximal inhibitory concentration (IC50) in series [3] of 115 nM.
`NC(=O)c1cc(C(N)=O)n(-c2ccc(F)c(-c3ccccc3OC(F)(F)F)c2)n1`: it took 477 nM to reach half-maximal inhibition in series [3] (IC50).
With `NC(=O)c1cc(C(N)=O)n(-c2cccc(-c3cc(C(F)(F)F)ccc3OC(F)(F)F)c2)n1`, the values for the IC50 in series [4] and in series [3] were 1180 nM and 325 nM, respectively. The Activity with Rattus norvegicus [1] was determined as 6%; in the series on Rattus norvegicus [2], 29%.
The compound `NC(=O)c1cc(C(N)=O)n(-c2cccc(-c3c(C(F)(F)F)cccc3C(F)(F)F)c2)n1` yielded a 50% inhibitory concentration (IC50) in series [3] of 715 nM.
With `NC(=O)c1cc(C(N)=O)n(-c2cccc(-c3cc(F)ccc3OCC(F)(F)C(F)(F)F)c2)n1`, the IC50 in series [4] amounted to 149 nM; in series [3], 46 nM. Moreover, the Activity with Rattus norvegicus [1] was 9%; in the series on Rattus norvegicus [2], 25%.
For `NC(=O)c1cc(C(N)=O)n(-c2cccc(-c3cccc(OC(F)(F)F)c3F)c2)n1`, in that order: 1510 nM, 282 nM, 8% and 28%.
For the compound `Cc1cc(C(N)=O)nn1-c1cccc(-c2ccccc2OC(F)(F)F)c1`, the results for the Activity with Rattus norvegicus [1] and with Rattus norvegicus [2] were 11% and 33%, respectively. Besides, the inhibition at 10 µM on hERG (KCNH2) was 69%.
In turn, `CCOC(=O)c1cc(C(N)=O)nn1-c1cccc(-c2ccccc2OC(F)(F)F)c1` had an inhibition at 10 µM at hERG (KCNH2) of 72%. In series [3], this compound showed an IC50 of 10 nM.
For the compound `NC(=O)c1cc(C(N)=O)n(-c2cccc(-c3cccc(C(F)(F)F)c3OCC(F)(F)C(F)(F)F)c2)n1`, the IC50 in series [4] was found to be 299 nM; in series [3], 147 nM. Also, the Activity was 8% with Rattus norvegicus [1] and 22% with Rattus norvegicus [2].
In the case of `Cc1cc(C(N)=O)nn1-c1cccc(-c2ccc(C(F)(F)F)cc2C(F)(F)F)c1`, in series [3], the inhibition constant Ki turned out to be 340 nM.
Regarding `NC(=O)c1cc(C(N)=O)n(-c2cccc(-c3cccc(OC(F)(F)F)c3OCC(F)(F)C(F)(F)F)c2)n1`, the results for the half-maximal inhibitory concentration (IC50) in series [4] and in series [3] were 203 nM and 64 nM, respectively. Besides, the Activity in the series with Rattus norvegicus [1] came out at 3%; with Rattus norvegicus [2], 6%.
Take `NC(=O)c1cc(C(N)=O)n(-c2cccc(-c3ccccc3OC(F)(F)F)c2)n1`: the IC50 stood at 554 nM in series [4] and 132 nM in series [3]. Also, the Activity in the series with Rattus norvegicus [1] was found to be 19%; in the series on Rattus norvegicus [2] it was 35%. Further, 10 µM produced 21% inhibition on hERG (KCNH2).
Consider `NC(=O)c1cc(C(N)=O)n(-c2cccc(-c3ccc(F)cc3OCC(F)(F)C(F)(F)F)c2)n1`, for which the Activity in the series with Rattus norvegicus [1] is 8%; with Rattus norvegicus [2], 28%. For the same compound, inhibition in series [3] was half-maximal at 106 nM (IC50).
At hERG (KCNH2), `CCNC(=O)c1cc(C(N)=O)nn1-c1cccc(-c2ccccc2OC(F)(F)F)c1` yielded an inhibition at 10 µM of 20%. The IC50 in series [3] is 29 nM.
In series [3], `NC(=O)c1nc(-c2cccc(-c3ccccc3OC(F)(F)F)c2)cs1` came in with a Ki of 230 nM.

One may read the inhibition as the percentage by which the read-out fell short of the control. Read a high inhibition as strong suppression. Broadly, the IC50 is the concentration at which inhibition is half-maximal. Read a low IC50 as inhibition by little substance. As usually defined, the Ki is the dissociation constant of the complex between target and ligand, obtained from inhibition or displacement.
